In patent US20260137677A1, “PROTACS USEFUL AGAINST THE MAIN PROTEASE SARS-COV-2” (Tocris Cookson Limited, priority 2022, published 2026) one finds IC50, inhibition and EC50 data, which are given here for 23 compounds.

Assay [1] addresses T1, recombinant SARS-CoV-2 main protease (Mpro) (Severe acute respiratory syndrome coronavirus 2, UniProt P0DTD1).
T1 construct: the main protease (Mpro; also called 3CLpro) which has an essential role in processing the polyproteins
The assay is described as follows: biochemical. The settings on record: FRET assay, Mpro 50 nM, substrate 10 μM.

Assay [2] concerns SARS-CoV-2 (SARS-CoV2/ZG/297-20) in Vero E6 cells. The assay is described as follows: microbe, parasite or virus in culture. It is filed as cell-based. The conditions noted are these: for inhibition at 10 µM / inhibition at 50 µM: Severe acute respiratory syndrome coronavirus 2, Vero C1008, 72 h; for inhibition at 10 µM: read-out: Antiviral Activity 10 uM; for inhibition at 50 µM: read-out: Antiviral Activity 50 uM; for EC50: Severe acute respiratory syndrome coronavirus 2, Vero C1008, Vero E6 infected with SARS-CoV-2 at an MOI of 0.05, read-out: EC50 in antiviral assay.

Where only a bound is given, the exact number is not on record here.

Broadly, the IC50 is the concentration needed to halve the response being measured. As to `O=C1CCC(N2C(=O)c3cccc(NCCCCCCNC(=O)[C@@H](NC(=O)C(c4cccnc4)N(C(=O)c4ccco4)c4ccc5c(c4)oc4ccccc45)c4ccccc4)c3C2=O)C(=O)N1` (some centres unmarked) [TS296], the half-inhibitory concentration (IC50) in assay [1] is more than 25000 nM. In addition, in assay [2], the inhibition at 10 µM is less than 0% and the inhibition at 50 µM is less than 0%.

As to `O=C1CCC(N2C(=O)c3ccc(NCCCCCCNC(=O)c4ccc5cncc(N6C(=O)NC7(CC(c8ccccc8Cl)C7)C6=O)c5c4)cc3C2=O)C(=O)N1` (centres unmarked) [Compound C10778Q, 4-(2-(2-chlorophenyl)-6,8-dioxo-5,7-diazaspiro[3.4]octan-7-yl)-N-(6-((2-(2,6-dioxopiperidin-3-yl)-1,3-dioxoisoindolin-5-yl)amino)hexyl)isoquinoline-6-carboxamide], the IC50 in assay [1] is less than 1000 nM. Further, in assay [2], the inhibition at 10 µM was less than 0% and the inhibition at 50 µM is less than 25%.

Take `O=C1CCC(N2C(=O)c3cccc(OCCCCNC(=O)c4ccc5c(N6C(=O)NC7(CC(c8ccccc8Cl)C7)C6=O)cncc5c4)c3C2=O)C(=O)N1` (centres unmarked) [Compound C10778U, 4-(2-(2-chlorophenyl)-6,8-dioxo-5,7-diazaspiro[3.4]octan-7-yl)-N-(4-((2-(2,6-dioxopiperidin-3-yl)-1,3-dioxoisoindolin-4-yl)oxy)butyl)isoquinoline-7-carboxamide]: the IC50 in assay [1] is less than 100 nM. Further, in assay [2], the inhibition at 10 µM was less than 25% and the inhibition at 50 µM is less than 25%.

For the compound `O=C1CCC(N2C(=O)c3cccc(NCCCCCCCCNC(=O)[C@@H](NC(=O)C(c4cccnc4)N(C(=O)c4ccco4)c4ccc5c(c4)oc4ccccc45)c4ccccc4)c3C2=O)C(=O)N1` (mixture of isomers) [TS369F1], in assay [1], the half-maximal inhibitory concentration (IC50) is more than 25000 nM. In assay [2], the inhibition at 10 µM was less than 25% and the inhibition at 50 µM was less than 25%.

For the compound `O=C(COc1ccc(C2CCC(=O)NC2=O)cc1)NCCCCNC(=O)[C@H](NC(=O)[C@@H](c1cccnc1)N(C(=O)c1ccco1)c1ccc(-c2ccccc2)cc1)c1ccccc1` (single isomer, unassigned) [TS477], the IC50 in assay [1] is less than 100 nM. For the same compound, in assay [2], the inhibition at 10 µM was less than 0% and the inhibition at 50 µM was less than 0%.

As for `O=C(COc1ccc(C2CCC(=O)NC2=O)cc1)NCCNC(=O)[C@H](NC(=O)[C@@H](c1cccnc1)N(C(=O)c1ccco1)c1ccc(-c2ccccc2)cc1)c1ccccc1` (single isomer, unassigned) [TS476], the concentration for half-maximal inhibition (IC50) in assay [1] was less than 100 nM. For the same compound, in assay [2], the inhibition at 10 µM is less than 0% and the inhibition at 50 µM is less than 0%.

For `O=C1CCC(N2C(=O)c3cccc(NCCOCCNC(=O)[C@@H](NC(=O)[C@@H](c4cccnc4)N(C(=O)c4ccco4)c4ccc(-c5ccccc5)cc4)c4ccccc4)c3C2=O)C(=O)N1` (single isomer, unassigned) [TS453F1b], the IC50 in assay [1] is less than 1000 nM. In assay [2], the inhibition at 10 µM was less than 0% and the inhibition at 50 µM is less than 0%.

Consider `O=C1CCC(N2C(=O)c3cccc(NCCOCCNC(=O)C(NC(=O)[C@@H](c4cccnc4)N(C(=O)c4ccco4)c4ccc5c(c4)oc4ccccc45)c4ccccc4)c3C2=O)C(=O)N1` (mixture of isomers) [TS312F1], for which the IC50 in assay [1] was less than 10000 nM. Moreover, in assay [2], the inhibition at 10 µM is less than 0% and the inhibition at 50 µM is less than 0%.

Consider `O=C1CCC(N2C(=O)c3cccc(OCCCCCCCC(=O)Nc4cccn([C@@H](CC5CC5)C(=O)N[C@@H](C[C@@H]5CCNC5=O)C(=O)C(=O)NCc5ccccc5)c4=O)c3C2=O)C(=O)N1` (some centres unmarked) [BT152], for which the 50% inhibitory concentration (IC50) in assay [1] was less than 1000 nM. Also, in assay [2], the inhibition at 10 µM is less than 25% and the inhibition at 50 µM is less than 50%.

Regarding `O=C1CCC(N2C(=O)c3cccc(NCCNC(=O)[C@H](NC(=O)[C@@H](c4cccnc4)N(C(=O)c4ccco4)c4ccc(-c5ccccc5)cc4)c4ccccc4)c3C2=O)C(=O)N1` (mixture of isomers) [TS449F1], the IC50 in assay [1] is less than 100 nM. In assay [2], the inhibition at 10 µM is less than 0% and the inhibition at 50 µM was less than 0%.

In the case of `O=C1CCC(N2C(=O)c3ccc(NCCCCCCNC(=O)c4ccc5c(N6C(=O)NC7(CC(c8ccccc8Cl)C7)C6=O)cncc5c4)cc3C2=O)C(=O)N1` (centres unmarked) [Compound C10778W, 4-(2-(2-chlorophenyl)-6,8-dioxo-5,7-diazaspiro[3.4]octan-7-yl)-N-(6-((2-(2,6-dioxopiperidin-3-yl)-1,3-dioxoisoindolin-5-yl)amino)hexyl)isoquinoline-7-carboxamide], the IC50 in assay [1] is less than 1000 nM. Also, in assay [2], the inhibition at 10 µM is less than 0% and the inhibition at 50 µM is less than 0%.

For orientation: EC50 means the concentration at which the effect is half-maximal. In the case of `O=C1CCC(N2C(=O)c3cccc(OCCNC(=O)c4ccc5cncc(N6C(=O)NC7(CC(c8ccccc8Cl)C7)C6=O)c5c4)c3C2=O)C(=O)N1` (centres unmarked) [Compound C10778P, 4-(2-(2-chlorophenyl)-6,8-dioxo-5,7-diazaspiro[3.4]octan-7-yl)-N-(2-((2-(2,6-dioxopiperidin-3-yl)-1,3-dioxoisoindolin-4-yl)oxy)ethyl)isoquinoline-6-carboxamide], in assay [1], the half-maximal inhibitory concentration (IC50) was less than 100 nM. Moreover, in assay [2], the inhibition at 10 µM is more than 75%, the inhibition at 50 µM was more than 75% and the concentration for a half-maximal effect (EC50) was 4900 nM.

In the case of `O=C1CCC(N2C(=O)c3ccc(NCCOCCOCCNC(=O)[C@H](NC(=O)[C@@H](c4cccnc4)N(C(=O)c4ccco4)c4ccc(-c5ccccc5)cc4)c4ccccc4)cc3C2=O)C(=O)N1` (single isomer, unassigned) [TS464], in assay [1], the half-inhibitory concentration (IC50) is less than 1000 nM. For the same compound, in assay [2], the inhibition at 10 µM is less than 0% and the inhibition at 50 µM is less than 25%.

As for `O=C1CCC(N2C(=O)c3cccc(OCCOCCOCCOCCNC(=O)c4ccc5cncc(N6C(=O)NC7(CC(c8ccccc8Cl)C7)C6=O)c5c4)c3C2=O)C(=O)N1` (centres unmarked) [Compound C10778S, 4-(2-(2-chlorophenyl)-6,8-dioxo-5,7-diazaspiro[3.4]octan-7-yl)-N-(2-(2-(2-(2-((2-(2,6-dioxopiperidin-3-yl)-1,3-dioxoisoindolin-4-yl)oxy)ethoxy)ethoxy)ethoxy)ethyl)isoquinoline-6-carboxamide], the concentration for half-maximal inhibition (IC50) in assay [1] was less than 100 nM. In assay [2], the inhibition at 10 µM was less than 25% and the inhibition at 50 µM was more than 75%.

`O=C1CCC(N2C(=O)c3cc(F)c(N4CCN(CC5CCN(C(=O)[C@H](NC(=O)[C@@H](c6cccnc6)N(C(=O)c6ccco6)c6ccc(-c7ccccc7)cc6)c6ccccc6)CC5)CC4)cc3C2=O)C(=O)N1` (single isomer, unassigned) [TS471]: the half-maximal inhibitory concentration (IC50) in assay [1] is less than 1000 nM. Also, in assay [2], the inhibition at 10 µM is less than 25% and the inhibition at 50 µM is less than 25%.

Turning to `O=C1CCC(N2C(=O)c3cccc(OCCNC(=O)c4ccc5c(N6C(=O)NC7(CC(c8ccccc8Cl)C7)C6=O)cncc5c4)c3C2=O)C(=O)N1` (centres unmarked) [Compound C10778V, 4-(2-(2-chlorophenyl)-6,8-dioxo-5,7-diazaspiro[3.4]octan-7-yl)-N-(2-((2-(2,6-dioxopiperidin-3-yl)-1,3-dioxoisoindolin-4-yl)oxy)ethyl)isoquinoline-7-carboxamide], the IC50 in assay [1] was less than 100 nM. For the same compound, in assay [2], the inhibition at 10 µM was less than 25% and the inhibition at 50 µM was less than 25%.

`O=C1CCC(N2C(=O)c3ccc(NCCOCCOCCOCCNC(=O)[C@H](NC(=O)[C@@H](c4cccnc4)N(C(=O)c4ccco4)c4ccc(-c5ccccc5)cc4)c4ccccc4)cc3C2=O)C(=O)N1` (single isomer, unassigned) [TS465]: in assay [1], the IC50 is less than 100 nM. In assay [2], the inhibition at 10 µM was less than 25% and the inhibition at 50 µM was less than 50%.

For the compound `O=C(COc1ccc(C2CCC(=O)NC2=O)cc1)NCCCCCNC(=O)c1ccc2cncc(N3C(=O)NC4(CC(c5ccccc5Cl)C4)C3=O)c2c1` (centres unmarked) [Compound C10778R, 4-(2-(2-chlorophenyl)-6,8-dioxo-5,7-diazaspiro[3.4]octan-7-yl)-N-(5-(2-(4-(2,6-dioxopiperidin-3-yl)phenoxy)acetamido)pentyl)isoquinoline-6-carboxamide], in assay [1], the half-inhibitory concentration (IC50) was less than 100 nM. In assay [2], the inhibition at 10 µM is more than 75%, the inhibition at 50 µM is more than 75% and the half-maximal effective concentration (EC50) came out at 4900 nM.

As for `O=C1CCC(N2C(=O)c3cccc(NCCCNC(=O)[C@@H](NC(=O)C(c4cccnc4)N(C(=O)c4ccco4)c4ccc5c(c4)oc4ccccc45)c4ccccc4)c3C2=O)C(=O)N1` (some centres unmarked) [TS284F2], in assay [1], the IC50 was less than 10000 nM. For the same compound, in assay [2], the inhibition at 10 µM was less than 0% and the inhibition at 50 µM is less than 0%.

On to `O=C1CCC(N2C(=O)c3cccc(OCCCCCCC(=O)Nc4cccn([C@@H](CC5CC5)C(=O)N[C@@H](C[C@@H]5CCNC5=O)C(=O)C(=O)NCc5ccccc5)c4=O)c3C2=O)C(=O)N1` (some centres unmarked) [BT150], for which the IC50 in assay [1] is less than 1000 nM. In assay [2], the inhibition at 10 µM was less than 25% and the inhibition at 50 µM is less than 25%.

With `O=C1CCC(N2C(=O)c3ccc(NCCOCCNC(=O)[C@H](NC(=O)[C@@H](c4cccnc4)N(C(=O)c4ccco4)c4ccc(-c5ccccc5)cc4)c4ccccc4)cc3C2=O)C(=O)N1` (single isomer, unassigned) [TS462], in assay [1], the IC50 was less than 1000 nM. In assay [2], the inhibition at 10 µM was less than 25% and the inhibition at 50 µM was less than 25%.

In the case of `O=C1CCC(N2C(=O)c3ccc(N4CCN(CC5CCN(C(=O)[C@H](NC(=O)[C@@H](c6cccnc6)N(C(=O)c6ccco6)c6ccc(-c7ccccc7)cc6)c6ccccc6)CC5)CC4)cc3C2=O)C(=O)N1` (single isomer, unassigned) [TS470], in assay [1], the IC50 is less than 100 nM. Besides, in assay [2], the inhibition at 10 µM was less than 25% and the inhibition at 50 µM is less than 50%.

As to `O=C1CCC(N2C(=O)c3cccc(NCCOCCOCCNC(=O)C(NC(=O)C(c4cccnc4)N(C(=O)c4ccco4)c4ccc(-c5ccccc5)cc4)c4ccccc4)c3C2=O)C(=O)N1` (single isomer, unassigned) [TS454F1], the IC50 in assay [1] is less than 1000 nM. Moreover, in assay [2], the inhibition at 10 µM is less than 0% and the inhibition at 50 µM was less than 0%.
